From patent US20240165089A1, “METHOD FOR TREATING MYOPIA WITH VINPOCETINE” (EYE HOSPITAL, WENZHOU MEDICAL UNIVERSITY, priority 2021, published 2024)
Several values for one entry are separate records, joined by “and”; a condition that tells them apart may be missing. Equal values may be shown once.

Legend:
[1] = tested on: form deprivation myopia model of guinea pigs; assay: FDM guinea pig model, subconjunctival injection of AVA; assay type: in vivo; settings: 1 week
Procedure: The modeling method for myopic individuals was the same as other embodiments of the present invention. […] No other active substances or excipients were added.

[2] = tested on: form deprivation myopia model of guinea pigs; assay: FDM guinea pig model, subconjunctival injection, salmeterol/tiotropium/vinpocetine; settings: 0.1% atropine, 2 weeks
Source text: The form deprivation myopia model of guinea pigs described in the present invention was used to evaluate the efficacy. […] On the first day of the experiment, guinea pigs were subjected to form deprivation at 8 a.m. using a mask method, with the right eye covered (experimental eye) and the left eye uncovered (contralateral eye). Starting from the day of modeling, solvents or drugs for the corresponding groups were given to the experimental eyes at 9-10 a.m. every day by eyeball subconjunctival injection at an injection volume of 100 μL, once a day for 2 weeks. The refraction and axial parameters of the animals were detected before the start of the efficacy experiment and at the end of the experiment. All data collection and processing methods were the same as in other embodiments of the present invention. The statistical basis was the difference between the experimental eye and the contralateral eye of the same subject individual.

[3] = tested on: form deprivation myopia model of guinea pigs; assay: FDM guinea pig model, eye drops (non-invasive administration); assay type: in vivo
Procedure: The purpose of this experiment was to evaluate the effect of vinpocetine on myopia through non-invasive administration. All tested drugs were formulated into eye drops. […] No other active substances or excipients were added to the above eye drops.

[4] = 0.1% atropine eye drops, 2 weeks
[5] = 0.1% atropine eye drops, 2 weeks (rounded and actual value)

Structure (SMILES) | axial length difference between the eyes ([1]; AVA 1 μM) [mm] | inhibition rate for the axial length ([1]; AVA 1 μM) [%] | inhibition rate for the vitreous chamber depth ([1]; AVA 1 μM) [%] | ocular abnormalities ([1]; AVA 1 μM) | refraction inhibition rate ([1]; AVA 1 μM) [%] | vitreous chamber depth difference between the eyes ([1]; AVA 1 μM) [mm] | refraction difference between the eyes ([1]; FDM, AVA 1 μM subconjunctival 100 μL once a day) [D] | efficacy as positive control ([1]; 0.1% atropine subconjunctival) | pupil dilation ([1]; 0.1% atropine subconjunctival) | corneal curvature (RCC), anterior chamber depth (ACD) and lens thickness (LT) [2] | pupil dilation ([2]; subconjunctival) | refraction change towards negative, axial length elongation and vitreous chamber depth increase vs negative control ([2]; FDM, subconjunctival) | therapeutic effect on the guinea pig myopia model ([3]; 0.01% atropine eye drops, same administration conditions) | inhibition rate for the vitreous chamber depth [3, 4] [%] | refraction inhibition rate [3, 4] [%] | axial length difference between the eyes [3, 5] | vitreous chamber depth difference between the eyes [3, 5] | pupil dilation ([3]; 0.1% atropine eye drops, during administration) | refraction difference between the eyes (model-induced myopia) ([3]; FDM, 0.1% atropine eye drops 25 μL twice a day, 2 weeks) [D]
CC[C@@]12C=C(C(=O)O)n3c4c(c5ccccc53)CCN(CCC1)[C@H]42 [AVA, apovincaminic acid] | 0.07±0.03 | 36.4 | 34.7 | no ocular abnormalities were observed | 39.6 | 0.06±0.02 | −2.65±1.18 | – | – | – | – | – | – | – | – | – | – | – | –
CN1[C@@H]2CC[C@H]1C[C@@H](OC(=O)C(CO)c1ccccc1)C2 (stereo partly shown) [atropine] | – | – | – | – | – | – | – | showed its due efficacy | Pupil dilation occurred | not affected by the drug | pupil dilation occurred | significantly inhibited | did not have any therapeutic effect | 21.8 | 40.0 | 0.11±0.05 mm and 0.1093±0.0530 mm | 0.11±0.05 mm and 0.1107±0.0502 mm | Adverse reactions of pupil dilation occurred | −3.93±1.75
